Experimental findings from patent US12522601B2, “1,3,4-oxadiazole derivative compounds as histone deacetylase 6 inhibitor, and the pharmaceutical composition comprising the same” (CHONG KUN DANG PHARMACEUTICAL CORP., priority 2020, dated 2026) are described below.

pIC50: −log10 of the molar value.

One experiment has as its target T1, human recombinant HDAC6 (Homo sapiens, UniProt Q9UBN7).
T1 construct: purchased Calbiochem Inc. 382180
T1 sequence (Q9UBN7 1-1215): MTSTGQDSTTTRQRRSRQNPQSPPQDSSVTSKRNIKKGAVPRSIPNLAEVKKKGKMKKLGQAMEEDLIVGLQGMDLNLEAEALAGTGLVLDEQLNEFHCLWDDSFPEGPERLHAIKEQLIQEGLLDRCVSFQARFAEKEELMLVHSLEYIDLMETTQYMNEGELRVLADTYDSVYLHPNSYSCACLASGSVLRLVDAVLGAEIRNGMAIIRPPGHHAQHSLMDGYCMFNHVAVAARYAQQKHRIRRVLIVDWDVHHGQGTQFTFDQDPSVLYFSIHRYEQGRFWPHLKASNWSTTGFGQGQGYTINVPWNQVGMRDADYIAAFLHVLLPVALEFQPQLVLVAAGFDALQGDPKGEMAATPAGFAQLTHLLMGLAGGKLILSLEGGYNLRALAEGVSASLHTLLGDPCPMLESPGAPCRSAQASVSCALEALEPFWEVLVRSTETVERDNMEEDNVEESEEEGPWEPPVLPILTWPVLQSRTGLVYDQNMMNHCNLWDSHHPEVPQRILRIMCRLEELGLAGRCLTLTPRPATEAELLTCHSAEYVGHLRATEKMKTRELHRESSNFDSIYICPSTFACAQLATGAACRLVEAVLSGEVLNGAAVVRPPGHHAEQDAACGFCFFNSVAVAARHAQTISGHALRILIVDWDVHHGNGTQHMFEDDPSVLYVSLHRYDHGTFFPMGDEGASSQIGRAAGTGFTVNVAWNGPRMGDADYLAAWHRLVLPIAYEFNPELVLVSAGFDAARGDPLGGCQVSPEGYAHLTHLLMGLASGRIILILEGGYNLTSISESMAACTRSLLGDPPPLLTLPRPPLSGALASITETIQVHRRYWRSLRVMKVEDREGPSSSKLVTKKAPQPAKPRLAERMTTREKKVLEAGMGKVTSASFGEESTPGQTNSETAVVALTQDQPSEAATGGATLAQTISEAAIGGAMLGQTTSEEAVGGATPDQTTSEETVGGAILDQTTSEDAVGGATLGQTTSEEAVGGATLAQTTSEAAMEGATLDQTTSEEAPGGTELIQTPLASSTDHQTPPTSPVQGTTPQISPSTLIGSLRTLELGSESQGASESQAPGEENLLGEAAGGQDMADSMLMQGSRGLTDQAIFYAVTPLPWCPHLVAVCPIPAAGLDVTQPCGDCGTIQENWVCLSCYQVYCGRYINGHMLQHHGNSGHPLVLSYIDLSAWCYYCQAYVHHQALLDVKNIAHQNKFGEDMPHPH
As to the kind of experiment: In vitro HDAC enzyme activity inhibition assay, HDAC6 (HDAC Fluorimetric Drug Discovery Kit). The experiment is classed as biochemical. The conditions noted are these: for HDAC6 Selectivity (fold): HDAC6 versus HDAC1; for pIC50: human recombinant HDAC6, same protocol as the HDAC1 test. In outline:
(§1)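 Fluorimetric deacetylase kit; 0.3 μg human recombinant enzyme with 10 μM Fluor de Lys-SIRT1 substrate, 60 min at 30° C, then developer 30 min. Fluorescence read at Ex 360/Em 460; IC50 from 5-fold compound dilutions. HDAC1 and HDAC6 run by the same protocol.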

In a further experiment the target is T2, human recombinant HDAC1 (Homo sapiens, UniProt Q13547).
T2 construct: purchased Enzo Life Sciences, Inc. BML-SE456
As to the kind of experiment: In vitro HDAC enzyme activity inhibition assay, HDAC1 (HDAC Fluorimetric Drug Discovery Kit). The experiment is classed as biochemical. The settings on record: human recombinant HDAC1, Fluor de Lys-SIRT1 substrate 10 μM, 30° C. for 60 minutes. In outline:
as §1

One may read the pIC50 as the IC50 on a negative log10 scale, so that one unit is a factor of ten.

T2 sequence (Q13547 whole entry): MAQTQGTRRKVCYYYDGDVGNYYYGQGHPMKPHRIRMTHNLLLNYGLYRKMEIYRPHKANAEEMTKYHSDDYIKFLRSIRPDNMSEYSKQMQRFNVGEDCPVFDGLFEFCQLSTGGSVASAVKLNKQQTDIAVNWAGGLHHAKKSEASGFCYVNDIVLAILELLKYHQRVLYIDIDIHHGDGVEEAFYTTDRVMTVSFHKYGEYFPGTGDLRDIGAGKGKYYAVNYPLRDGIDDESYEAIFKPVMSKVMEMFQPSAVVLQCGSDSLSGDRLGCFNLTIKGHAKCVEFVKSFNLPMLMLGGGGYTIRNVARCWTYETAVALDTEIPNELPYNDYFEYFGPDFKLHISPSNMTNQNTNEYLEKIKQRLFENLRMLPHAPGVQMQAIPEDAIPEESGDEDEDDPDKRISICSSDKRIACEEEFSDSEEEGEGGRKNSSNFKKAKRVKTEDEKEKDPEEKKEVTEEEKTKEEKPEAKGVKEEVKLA

Regarding `CC(CO)N1CCN(C(=O)N(Cc2cn3ccc(-c4nnc(C(F)F)o4)cc3n2)c2ccccc2)CC1` (stereo not drawn) [Compound 4035, N-((7-(5-(difluoromethyl)-1,3,4-oxadiazol-2-yl)imidazo[1,2-a]pyridin-2-yl)methyl)-4-(1-hydroxypropan-2-yl)-N-phenylpiperazine-1-carboxamide], the “HDAC6 Selectivity (fold)” value at human recombinant HDAC6 is listed as 168 fold. Moreover, the results for the pIC50 on human recombinant HDAC6 and at human recombinant HDAC1 were 6.53 and below 4.30, respectively.

`CC(CO)N1CCC(C(=O)N(Cc2cn3ccc(-c4nnc(C(F)F)o4)cc3n2)c2ccccc2)CC1` (stereo not drawn) [Compound 4117, N-((7-(5-(difluoromethyl)-1,3,4-oxadiazol-2-yl)imidazo[1,2-a]pyridin-2-yl)methyl)-1-(1-hydroxypropan-2-yl)-N-phenylpiperidine-4-carboxamide]: at human recombinant HDAC6, the “HDAC6 Selectivity (fold)” value was 133 fold and the pIC50 is 6.42. At human recombinant HDAC1, the pIC50 is below 4.30.

Regarding `CC(CO)N1CCC(C(=O)N(Cc2cn3ccc(-c4nnc(C(F)F)o4)cc3n2)c2cccc(F)c2)CC1` (stereo not drawn) [Compound 4140, N-((7-(5-(difluoromethyl)-1,3,4-oxadiazol-2-yl)imidazo[1,2-a]pyridin-2-yl)methyl)-N-(3-fluorophenyl)-1-(1-hydroxypropan-2-yl)piperidine-4-carboxamide], on human recombinant HDAC6, the “HDAC6 Selectivity (fold)” value was found to be 246 fold. The negative-log IC50 (pIC50) at human recombinant HDAC6 is 6.69; on human recombinant HDAC1, below 4.30.

As for `CCN1CCN(C(=O)N(Cc2cn3ccc(-c4nnc(C(F)F)o4)cc3n2)c2cccc(F)c2)CC1` [Compound 4084, N-((7-(5-(difluoromethyl)-1,3,4-oxadiazol-2-yl)imidazo[1,2-a]pyridin-2-yl)methyl)-4-ethyl-N-(3-fluorophenyl)piperazine-1-carboxamide], the “HDAC6 Selectivity (fold)” value on human recombinant HDAC6 was found to be 183 fold. In addition, the pIC50 is 6.56 at human recombinant HDAC6 and below 4.30 on human recombinant HDAC1.

For the compound `O=C(C1CCN(C2CCCCC2)CC1)N(Cc1cn2ccc(-c3nnc(C(F)F)o3)cc2n1)c1cccc(F)c1` [Compound 4143, 1-cyclohexyl-N-((7-(5-(difluoromethyl)-1,3,4-oxadiazol-2-yl)imidazo[1,2-a]pyridin-2-yl)methyl)-N-(3-fluorophenyl)piperidine-4-carboxamide], at human recombinant HDAC6, the “HDAC6 Selectivity (fold)” value is recorded as 335 fold. Also, the negative-log IC50 (pIC50) was 6.83 on human recombinant HDAC6 and below 4.30 at human recombinant HDAC1.

Take `COC(=O)N1CCC(C(=O)N(Cc2cn3ccc(-c4nnc(C(F)F)o4)cc3n2)c2ccccc2)CC1` [Compound 4129, methyl 4-(((7-(5-(difluoromethyl)-1,3,4-oxadiazol-2-yl)imidazo[1,2-a]pyridin-2-yl)methyl)(phenyl)carbamoyl)piperidine-1-carboxylate]: the “HDAC6 Selectivity (fold)” value at human recombinant HDAC6 was found to be 125 fold. Further, the negative logarithm of the IC50 (pIC50) was 6.40 at human recombinant HDAC6 and below 4.30 on human recombinant HDAC1.

As for `CN(C)C(=O)N1CC(C(=O)N(Cc2cn3ccc(-c4nnc(C(F)F)o4)cc3n2)c2ccccc2)C1` [Compound 4175, N3-((7-(5-(difluoromethyl)-1,3,4-oxadiazol-2-yl)imidazo[1,2-a]pyridin-2-yl)methyl)-N1,N1-dimethyl-N3-phenylazetidine-1,3-dicarboxamide], on human recombinant HDAC6, the “HDAC6 Selectivity (fold)” value was 131 fold and the negative logarithm of the IC50 (pIC50) is 6.42. In addition, on human recombinant HDAC1, the pIC50 is below 4.30.

For `O=C(C1CN(C2CCC(F)(F)CC2)C1)N(Cc1cn2ccc(-c3nnc(C(F)F)o3)cc2n1)c1cccc(F)c1` [Compound 4196, 1-(4,4-Difluorocyclohexyl)-N-((7-(5-(difluoromethyl)-1,3,4-oxadiazol-2-yl)imidazo[1,2-a]pyridin-2-yl)methyl)-N-(3-fluorophenyl) azetidine-3-carboxamide], the “HDAC6 Selectivity (fold)” value at human recombinant HDAC6 was 276 fold. The pIC50 at human recombinant HDAC6 was 6.74; at human recombinant HDAC1, below 4.30.

With `O=C(C1CN(C2CCCCC2)C1)N(Cc1cn2ccc(-c3nnc(C(F)F)o3)cc2n1)c1cccc(F)c1` [Compound 4194, 1-cyclohexyl-N-((7-(5-(difluoromethyl)-1,3,4-oxadiazol-2-yl)imidazo[1,2-a]pyridin-2-yl)methyl)-N-(3-fluorophenyl) azetidine-3-carboxamide], on human recombinant HDAC6, the “HDAC6 Selectivity (fold)” value was found to be 379 fold and the negative logarithm of the IC50 (pIC50) is 6.88. On human recombinant HDAC1, the pIC50 is below 4.30.

Take `O=C(N1CCN(C2COC2)CC1)N(Cc1cn2ccc(-c3nnc(C(F)F)o3)cc2n1)c1ccccc1` [Compound 3785]: at human recombinant HDAC6, the “HDAC6 Selectivity (fold)” value is recorded as 437 fold and the negative logarithm of the IC50 (pIC50) is 6.94. The pIC50 at human recombinant HDAC1 is below 4.30.

As for `CCC(=O)N1CCN(C(=O)N(Cc2cn3ccc(-c4nnc(C(F)F)o4)cc3n2)c2cccc(F)c2)CC1` [Compound 4093, N-((7-(5-(difluoromethyl)-1,3,4-oxadiazol-2-yl)imidazo[1,2-a]pyridin-2-yl)methyl)-N-(3-fluorophenyl)-4-propionylpiperazine-1-carboxamide], at human recombinant HDAC6, the “HDAC6 Selectivity (fold)” value is given as 256 fold and the pIC50 is 6.71. For the same compound, the pIC50 on human recombinant HDAC1 was below 4.30.

On to `COC(=O)N1CCC(C(=O)N(Cc2cn3ccc(-c4nnc(C(F)F)o4)cc3n2)c2cccc(F)c2)CC1` [Compound 4154, methyl 4-(((7-(5-(difluoromethyl)-1,3,4-oxadiazol-2-yl)imidazo[1,2-a]pyridin-2-yl)methyl)(3-fluorophenyl)carbamoyl)piperidine-1-carboxylate], for which, at human recombinant HDAC6, the “HDAC6 Selectivity (fold)” value is given as 218 fold and the pIC50 is 6.64. Further, on human recombinant HDAC1, the negative-log IC50 (pIC50) was below 4.30.

With `O=C(C1CCN(C2CCCCC2)CC1)N(Cc1cn2ccc(-c3nnc(C(F)F)o3)cc2n1)c1ccccc1` [Compound 4119, 1-cyclohexyl-N-((7-(5-(difluoromethyl)-1,3,4-oxadiazol-2-yl)imidazo[1,2-a]pyridin-2-yl)methyl)-N-phenylpiperidine-4-carboxamide], on human recombinant HDAC6, the “HDAC6 Selectivity (fold)” value came to 124 fold and the pIC50 is 6.40. The pIC50 at human recombinant HDAC1 is below 4.30.

Regarding `CCN1CCC(C(=O)N(Cc2cn3ccc(-c4nnc(C(F)F)o4)cc3n2)c2cccc(F)c2)CC1` [Compound 4138, N-((7-(5-(difluoromethyl)-1,3,4-oxadiazol-2-yl)imidazo[1,2-a]pyridin-2-yl)methyl)-1-ethyl-N-(3-fluorophenyl)piperidine-4-carboxamide], on human recombinant HDAC6, the “HDAC6 Selectivity (fold)” value was determined as 292 fold and the pIC50 was 6.77. The negative-log IC50 (pIC50) at human recombinant HDAC1 is below 4.30.

For `O=C(C1COC1)N1CC(C(=O)N(Cc2cn3ccc(-c4nnc(C(F)F)o4)cc3n2)c2ccccc2)C1` [Compound 4171, N-((7-(5-(difluoromethyl)-1,3,4-oxadiazol-2-yl)imidazo[1,2-a]pyridin-2-yl)methyl)-1-(oxetan-3-carbonyl)-N-phenylazetidine-3-carboxamide], on human recombinant HDAC6, the “HDAC6 Selectivity (fold)” value came out at 141 fold and the pIC50 is 6.45. The negative-log IC50 (pIC50) on human recombinant HDAC1 was below 4.30.

As to `O=C(CO)N1CCC(C(=O)N(Cc2cn3ccc(-c4nnc(C(F)F)o4)cc3n2)c2cccc(F)c2)CC1` [Compound 4149, N-((7-(5-(difluoromethyl)-1,3,4-oxadiazol-2-yl)imidazo[1,2-a]pyridin-2-yl)methyl)-N-(3-fluorophenyl)-1-(2-hydroxyacetyl)piperidine-4-carboxamide], at human recombinant HDAC6, the “HDAC6 Selectivity (fold)” value is given as 335 fold and the negative logarithm of the IC50 (pIC50) was 6.83. The negative logarithm of the IC50 (pIC50) on human recombinant HDAC1 was below 4.30.

For the compound `CS(=O)(=O)c1ccc(Cc2cn3ccc(-c4nnc(C(F)F)o4)cc3n2)cc1` [Compound 3595, 2-(difluoromethyl)-5-(2-(4-(methylsulfonyl)benzyl)imidazo[1,2-a]pyridin-7-yl)-1,3,4-oxadiazole], at human recombinant HDAC6, the “HDAC6 Selectivity (fold)” value stood at 112 fold and the negative logarithm of the IC50 (pIC50) is 6.35. Also, the pIC50 on human recombinant HDAC1 is below 4.30.

For `CN1CC(C(=O)N(Cc2cn3ccc(-c4nnc(C(F)F)o4)cc3n2)c2cccc(F)c2)C1` [Compound 4188, N-((7-(5-(difluoromethyl)-1,3,4-oxadiazol-2-yl)imidazo[1,2-a]pyridin-2-yl)methyl)-N-(3-fluorophenyl)-1-methylazetidine-3-carboxamide], on human recombinant HDAC6, the “HDAC6 Selectivity (fold)” value was 134 fold and the negative logarithm of the IC50 (pIC50) is 6.43. In addition, the pIC50 on human recombinant HDAC1 is below 4.30.
